Data: ChEMBL document CHEMBL5705888, “Substrate specificity and inhibitors of LRRK2, a protein kinase mutated in Parkinson's disease” (Biochem J, 2009)

Tests used:
[1] = target: T1, NUAK family SNF1-like kinase 1 (Homo sapiens) (UniProt O60285); assay: Activity of NUAK1 (unknown origin) at 1 uM incubated for 30 mins in presence of [gamma-33P]ATP by multidrop micro reagent based assay relative to control
T1 sequence (whole entry): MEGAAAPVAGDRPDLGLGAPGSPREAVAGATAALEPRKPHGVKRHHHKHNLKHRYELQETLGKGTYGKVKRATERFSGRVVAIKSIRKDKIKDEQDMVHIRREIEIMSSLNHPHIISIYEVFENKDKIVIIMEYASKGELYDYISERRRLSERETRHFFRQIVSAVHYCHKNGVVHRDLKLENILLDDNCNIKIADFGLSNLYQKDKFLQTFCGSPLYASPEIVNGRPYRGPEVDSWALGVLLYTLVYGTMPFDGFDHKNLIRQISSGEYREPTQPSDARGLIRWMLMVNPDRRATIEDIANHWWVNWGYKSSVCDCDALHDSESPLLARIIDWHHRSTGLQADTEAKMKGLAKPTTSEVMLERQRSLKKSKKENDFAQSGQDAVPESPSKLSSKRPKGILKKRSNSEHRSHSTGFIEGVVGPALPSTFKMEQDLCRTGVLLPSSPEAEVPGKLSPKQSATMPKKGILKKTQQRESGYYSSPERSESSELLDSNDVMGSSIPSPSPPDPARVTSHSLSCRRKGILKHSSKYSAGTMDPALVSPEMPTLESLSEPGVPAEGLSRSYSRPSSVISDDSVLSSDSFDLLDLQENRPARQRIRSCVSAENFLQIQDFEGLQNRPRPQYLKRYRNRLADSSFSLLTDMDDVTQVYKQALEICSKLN

[2] = target: Mitogen-activated protein kinase 11 (Homo sapiens) (UniProt Q15759); assay: Inhibition of p38beta MAPK (unknown origin) at 10 uM incubated for 30 mins in presence of [gamma-33P]ATP by multidrop micro reagent based assay relative to control; values are per cent of control
[3] = target: T2, Serine/threonine-protein kinase STK11 (Homo sapiens) (UniProt Q15831); assay: Inhibition of LKB1 (unknown origin) at 10 uM incubated for 30 mins in presence of [gamma-33P]ATP by multidrop micro reagent based assay relative to control; values are per cent of control
T2 sequence (whole entry): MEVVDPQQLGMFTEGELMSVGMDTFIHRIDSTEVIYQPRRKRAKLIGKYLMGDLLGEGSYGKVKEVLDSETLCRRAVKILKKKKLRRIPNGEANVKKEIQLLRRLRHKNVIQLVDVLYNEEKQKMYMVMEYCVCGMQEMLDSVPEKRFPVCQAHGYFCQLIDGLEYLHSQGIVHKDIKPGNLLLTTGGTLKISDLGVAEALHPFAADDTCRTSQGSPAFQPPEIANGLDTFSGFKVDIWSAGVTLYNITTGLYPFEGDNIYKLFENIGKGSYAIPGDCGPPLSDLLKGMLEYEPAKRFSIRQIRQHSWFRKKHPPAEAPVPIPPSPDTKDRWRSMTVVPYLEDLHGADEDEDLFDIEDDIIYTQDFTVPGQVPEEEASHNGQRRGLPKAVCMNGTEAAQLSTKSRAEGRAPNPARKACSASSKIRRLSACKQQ

[4] = target: T3, Serine/threonine-protein kinase BRSK2 (Homo sapiens) (UniProt Q8IWQ3); assay: Inhibition of BRSK2 (unknown origin) at 10 uM incubated for 30 mins in presence of [gamma-33P]ATP by multidrop micro reagent based assay relative to control
T3 sequence (whole entry): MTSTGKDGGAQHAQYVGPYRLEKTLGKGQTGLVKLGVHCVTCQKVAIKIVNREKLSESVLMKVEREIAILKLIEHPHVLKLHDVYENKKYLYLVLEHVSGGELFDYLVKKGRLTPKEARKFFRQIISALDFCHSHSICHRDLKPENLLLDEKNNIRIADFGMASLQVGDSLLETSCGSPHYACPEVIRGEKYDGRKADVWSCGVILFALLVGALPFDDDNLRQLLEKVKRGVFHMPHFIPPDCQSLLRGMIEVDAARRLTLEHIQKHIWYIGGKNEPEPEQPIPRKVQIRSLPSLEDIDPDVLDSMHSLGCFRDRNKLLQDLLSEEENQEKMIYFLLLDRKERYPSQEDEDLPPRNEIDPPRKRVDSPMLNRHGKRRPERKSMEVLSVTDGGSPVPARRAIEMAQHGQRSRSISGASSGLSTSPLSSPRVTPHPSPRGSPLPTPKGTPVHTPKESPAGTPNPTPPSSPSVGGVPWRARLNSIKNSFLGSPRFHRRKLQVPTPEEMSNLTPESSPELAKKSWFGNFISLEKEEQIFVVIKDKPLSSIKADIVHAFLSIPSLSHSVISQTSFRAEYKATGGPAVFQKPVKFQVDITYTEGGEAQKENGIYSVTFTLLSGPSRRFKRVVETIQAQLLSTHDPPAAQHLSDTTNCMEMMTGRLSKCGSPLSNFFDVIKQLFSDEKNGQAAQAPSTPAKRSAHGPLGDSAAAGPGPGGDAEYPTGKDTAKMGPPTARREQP

[5] = target: RAC-alpha serine/threonine-protein kinase (Homo sapiens) (UniProt P31749); assay: Inhibition of PKBalpha (unknown origin) at 10 uM incubated for 30 mins in presence of [gamma-33P]ATP by multidrop micro reagent based assay relative to control; values are per cent of control
[6] = target: Homeodomain-interacting protein kinase 2 (Homo sapiens) (UniProt Q9H2X6); assay: Inhibition of HIPK2 (unknown origin) at 10 uM incubated for 30 mins in presence of [gamma-33P]ATP by multidrop micro reagent based assay relative to control; values are per cent of control
Homo sapiens = species on record: Homo sapiens; assay: Inhibition of CDK2/cyclin A (unknown origin) at 1 uM incubated for 30 mins in presence of [gamma-33P]ATP by multidrop micro reagent based assay relative to control; values are per cent of control
[7] = target: Mitogen-activated protein kinase 1 (Homo sapiens) (UniProt P28482); assay: Inhibition of ERK2 (unknown origin) at 1 uM incubated for 30 mins in presence of [gamma-33P]ATP by multidrop micro reagent based assay relative to control; values are per cent of control
Chain of Mitogen-activated protein kinase 1 (Homo sapiens) (P28482 whole entry): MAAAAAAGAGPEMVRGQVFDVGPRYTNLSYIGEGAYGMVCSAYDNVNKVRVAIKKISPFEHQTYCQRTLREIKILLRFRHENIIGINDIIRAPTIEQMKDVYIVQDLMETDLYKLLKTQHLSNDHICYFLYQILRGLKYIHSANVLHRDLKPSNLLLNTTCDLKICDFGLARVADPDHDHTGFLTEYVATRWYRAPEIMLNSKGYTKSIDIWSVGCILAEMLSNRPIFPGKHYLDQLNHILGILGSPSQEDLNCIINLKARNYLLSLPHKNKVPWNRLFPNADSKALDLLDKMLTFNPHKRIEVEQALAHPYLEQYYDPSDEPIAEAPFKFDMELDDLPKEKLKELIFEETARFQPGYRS

Chain of Mitogen-activated protein kinase 11 (Homo sapiens) (Q15759 whole entry): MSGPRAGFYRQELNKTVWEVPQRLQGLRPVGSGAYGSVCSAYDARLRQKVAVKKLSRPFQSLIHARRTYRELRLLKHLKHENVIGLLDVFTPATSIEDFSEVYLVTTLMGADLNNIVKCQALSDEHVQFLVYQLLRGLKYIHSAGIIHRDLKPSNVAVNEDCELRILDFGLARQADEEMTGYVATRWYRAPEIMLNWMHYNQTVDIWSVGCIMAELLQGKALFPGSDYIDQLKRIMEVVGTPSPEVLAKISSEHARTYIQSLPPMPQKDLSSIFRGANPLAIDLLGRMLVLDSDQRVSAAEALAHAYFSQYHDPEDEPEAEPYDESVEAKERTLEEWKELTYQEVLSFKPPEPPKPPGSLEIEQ
Chain of Homeodomain-interacting protein kinase 2 (Homo sapiens) (Q9H2X6 whole entry, looked up): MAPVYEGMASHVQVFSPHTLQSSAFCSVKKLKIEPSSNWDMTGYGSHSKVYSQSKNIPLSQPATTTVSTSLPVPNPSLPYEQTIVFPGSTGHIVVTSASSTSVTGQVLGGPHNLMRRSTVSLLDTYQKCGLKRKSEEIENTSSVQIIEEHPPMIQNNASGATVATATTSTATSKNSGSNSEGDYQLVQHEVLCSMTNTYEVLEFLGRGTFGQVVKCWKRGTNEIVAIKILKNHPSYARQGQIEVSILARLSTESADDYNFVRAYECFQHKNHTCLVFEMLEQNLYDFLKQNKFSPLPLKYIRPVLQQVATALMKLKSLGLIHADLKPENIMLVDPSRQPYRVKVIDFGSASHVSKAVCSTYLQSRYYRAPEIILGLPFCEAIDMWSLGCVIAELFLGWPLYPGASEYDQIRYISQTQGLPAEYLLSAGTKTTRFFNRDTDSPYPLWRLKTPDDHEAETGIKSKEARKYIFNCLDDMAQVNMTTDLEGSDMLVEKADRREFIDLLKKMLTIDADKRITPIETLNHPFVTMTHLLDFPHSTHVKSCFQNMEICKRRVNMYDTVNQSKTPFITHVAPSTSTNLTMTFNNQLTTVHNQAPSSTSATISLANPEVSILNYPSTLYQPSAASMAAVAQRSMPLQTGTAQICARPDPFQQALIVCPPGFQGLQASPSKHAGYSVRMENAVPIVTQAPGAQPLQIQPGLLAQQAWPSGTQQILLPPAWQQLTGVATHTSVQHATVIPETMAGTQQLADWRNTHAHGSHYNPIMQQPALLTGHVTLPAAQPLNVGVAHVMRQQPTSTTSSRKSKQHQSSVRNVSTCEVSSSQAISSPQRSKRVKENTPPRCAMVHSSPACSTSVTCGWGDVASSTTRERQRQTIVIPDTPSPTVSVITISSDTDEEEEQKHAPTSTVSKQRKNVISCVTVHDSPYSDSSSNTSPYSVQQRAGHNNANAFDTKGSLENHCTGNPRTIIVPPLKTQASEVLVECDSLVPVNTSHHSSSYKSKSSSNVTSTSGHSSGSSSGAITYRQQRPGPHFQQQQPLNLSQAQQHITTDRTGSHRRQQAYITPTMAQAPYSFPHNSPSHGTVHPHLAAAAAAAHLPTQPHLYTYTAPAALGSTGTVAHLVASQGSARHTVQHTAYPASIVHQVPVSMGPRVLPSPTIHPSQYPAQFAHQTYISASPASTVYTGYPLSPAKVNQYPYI
Chain of RAC-alpha serine/threonine-protein kinase (Homo sapiens) (P31749 whole entry): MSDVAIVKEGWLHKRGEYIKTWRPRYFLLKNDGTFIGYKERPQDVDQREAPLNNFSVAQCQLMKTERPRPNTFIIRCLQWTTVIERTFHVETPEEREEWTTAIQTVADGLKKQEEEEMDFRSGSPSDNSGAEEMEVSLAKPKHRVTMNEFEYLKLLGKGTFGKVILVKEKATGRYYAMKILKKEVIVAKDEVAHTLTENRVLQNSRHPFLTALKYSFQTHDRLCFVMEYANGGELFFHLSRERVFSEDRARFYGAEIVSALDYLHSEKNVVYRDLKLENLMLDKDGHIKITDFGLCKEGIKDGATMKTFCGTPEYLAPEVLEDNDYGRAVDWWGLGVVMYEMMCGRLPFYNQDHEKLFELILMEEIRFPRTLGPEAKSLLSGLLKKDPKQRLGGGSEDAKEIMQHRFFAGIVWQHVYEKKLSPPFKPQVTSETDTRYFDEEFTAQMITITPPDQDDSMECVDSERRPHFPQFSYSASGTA

| Compound | residual activity [1] [%] | residual activity [2] [%] | residual activity [3] [%] | inhibition [4] [%] | residual activity [5] [%] | residual activity [6] [%] | residual activity (Homo sapiens) [%] | residual activity [7] [%] |
| --- | --- | --- | --- | --- | --- | --- | --- | --- |
| CCN(CC)CCNC(=O)c1c(C)[nH]c(/C=C2\C(=O)Nc3ccc(F)cc32)c1C | 15 |  |  |  |  |  |  |  |
| C[C@@H](N)[C@H]1CC[C@H](C(=O)Nc2ccncc2)CC1 |  | 101 | 52 | 43 | 56 | 104 |  |  |
| CC1=C(C(=O)Nc2cc3cn[nH]c3cc2F)C(c2ccc(C(F)(F)F)cc2)CC(=O)N1 (stereo unspecified) |  |  |  |  |  |  | 49 | 94 |
| O=S(=O)(c1cccc2cnccc12)N1CCCNCC1 [FASUDIL] |  | 111 | 33 | 38 | 27 | 127 |  |  |
| CCn1c(-c2nonc2N)nc2cnc(Oc3cccc(NC(=O)c4ccc(OCCN5CCOCC5)cc4)c3)cc21 [GSK-269962A] | 39 |  |  |  |  |  | 50 | 105 |
